According to PMC5075052, “Modulation of the Substitution Pattern of 5-Aryl-2-Aminoimidazoles Allows Fine-Tuning of Their Antibiofilm Activity Spectrum and Toxicity” (Antimicrobial Agents and Chemotherapy, 2016):
Like-named read-outs stand apart in the source and are kept apart here.

Legend:
[1] = test system: E. coli TG1 + P. aeruginosa PA14; test: Mixed-species E. coli-P. aeruginosa biofilm assay (peg, crystal violet); format: cell-based, Escherichia coli + Pseudomonas aeruginosa
Procedure: Overnight cultures of E. coli TG1 and P. aeruginosa PA14 were diluted 1/100 in the same vial of TSB diluted 1/20 to form a mixed-culture suspension. Next, 2-fold serial dilutions of the compounds (dissolved in 100% DMSO or ethanol) in 100 μl liquid broth (TSB diluted 1/20) per well were prepared in the microtiter plate of the Calgary biofilm device (Nunc no. 269789) in duplicate or triplicate with a maximum concentration of 1,600 μM and a minimum concentration of 0.8 μM. One hundred microliters of the mixed-culture suspension was added to each well of the microtiter plate, resulting in a total volume of 200 μl medium per well (final concentration range of compounds, 800 μM [2% DMSO or ethanol] to 0.4 μM [0.001% DMSO or ethanol]). The pegged lid was placed on the microtiter plate, and the plate was incubated for 72 h at 37°C, which allowed biofilm formation on the pegs (Nunc no. 269789) of the Calgary biofilm device. After 72 h, the biofilm was colored with crystal violet as described above ([74]). The OD570 (biofilm cells) and OD600 (planktonic cells) were measured, and the BIC50 and the IC50, respectively, were calculated.

[2] = test system: S. aureus ATCC 6538 + S. epidermidis; test: Mixed-species S. aureus-S. epidermidis biofilm assay (peg, crystal violet); format: cell-based, Staphylococcus aureus + Staphylococcus epidermidis; conditions: 37°C
Procedure: Overnight cultures of S. aureus ATCC 6538 and S. epidermidis were grown in LB medium and were diluted 1/200 in the same vial of TSB to form a mixed-culture suspension. Next, 2-fold serial dilutions of the compounds (dissolved in 100% DMSO or ethanol) in 100 μl TSB medium per well were prepared in the microtiter plate (Nunc no. 269789) in duplicate or triplicate with a maximum concentration of 1,600 μM and a minimum concentration of 0.8 μM. One hundred microliters of the mixed-culture suspension was added to each well of the microtiter plate, resulting in a total volume of 200 μl medium per well (final concentration range of compounds, 800 μM [2% DMSO or ethanol] to 0.4 μM [0.001% DMSO or ethanol]). The cells were then incubated for 48 h at 37°C, which allowed biofilm formation on the pegs (Nunc no. 269789) of the Calgary biofilm device. After 24 h, fresh medium with compounds was added to the wells, and after 48 h, the biofilm was colored with crystal violet as described above ([74]). The OD570 (biofilm) and OD600 (planktonic) were measured, and the BIC50 and the IC50, respectively, were calculated.

E. coli TG1 = test: Monospecies bacterial biofilm inhibition, static peg assay; format: cell-based, Escherichia coli; conditions: Escherichia coli
Procedure: (§1) A static peg assay, described previously ([27], [74]), was used for bacterial biofilm formation. The Calgary biofilm device consists of a platform carrying 96 polystyrene pegs (Nunc no. 445497) that fits as a microtiter plate lid, with 1 peg hanging into each microtiter plate well (Nunc no. 269789). Twofold serial dilutions of the compounds (dissolved in 100% dimethyl sulfoxide [DMSO] or ethanol) in 100 μl liquid broth (TSB diluted 1/20) per well were prepared in the microtiter plate in duplicate or triplicate with a maximum concentration of 1,600 μM and a minimum concentration of 0.8 μM. Subsequently, an overnight culture of S. Typhimurium ATCC 14028, P. aeruginosa PA14, E. coli TG1, S. epidermidis, S. aureus SH1000, or S. aureus ATCC 6538 (all grown in LB) was diluted 1:100 into TSB diluted 1/20 (or TSB for S. epidermidis, S. aureus SH1000, and S. aureus ATCC 6538), whereas overnight cultures of S. liquefaciens MG44 and B. cepacia LMG1222T were diluted 1:50 into TSB diluted 1/20. P. gingivalis ATCC 33277 cultures were diluted in TSB diluted 1/20 to have a final concentration of 1 × 10^8 cells/ml. Next, 100 μl was added to each well of the microtiter plate, resulting in a total volume of 200 μl medium per well (final concentration range of compounds, 800 μM [2% DMSO or ethanol] to 0.4 μM [0.001% DMSO or ethanol]). In the next step, the pegged lid was placed on the microtiter plate and the plate was incubated for 24 h or 48 h at 25°C or 37°C without shaking. At 37°C, the plates were placed in a sealed container with wet towels on the bottom to prevent evaporation of the growth medium. Biofilms of P. gingivalis ATCC 33277 were grown anaerobically at 37°C for 72 h. During this incubation period, biofilms were formed on the surface of the pegs. After incubation, the optical density at 600 nm (OD600) for the planktonic cells in the microtiter plate was measured using a Synergy MX multimode reader (BioTek, Winooski, VT). This gives a first indication of the effect of the compounds on planktonic growth. For quantification of biofilm formation, the pegs were washed once in 200 μl PBS. The remaining attached bacteria were stained for 30 min with 200 μl 0.1% (wt/vol) crystal violet in an isopropanol-methanol-PBS solution (1:1:18, vol/vol). Excess stain was rinsed off by placing the pegs in a 96-well plate filled with 200 μl distilled water per well. After air drying of the pegs (30 min), the dye bound to the adherent biofilm was extracted with 30% glacial acetic acid (200 μl per well of a 96-well plate). The optical density at 570 nm (OD570) of each well was measured using a Synergy MX multimode reader (BioTek, Winooski, VT). The concentration of each compound needed to inhibit biofilm formation by 50% (BIC50) and the concentration of each compound needed to inhibit planktonic growth by 50% (IC50) were determined from the concentration gradient by using nonlinear curve fitting (GraphPad Prism software, version 5; GraphPad Software, Inc., La Jolla, CA). In the same assay, the effect on planktonic growth was evaluated. The activity was considered biofilm specific if the BIC50 was at least two times lower than the IC50. Data represent the means from at least 3 technical repeats with the corresponding 95% confidence intervals (provided in the supplemental material).

P. aeruginosa PA14 = test: as above; format: cell-based, Pseudomonas aeruginosa; conditions: Pseudomonas aeruginosa
Procedure: as §1

S. aureus ATCC 6538 = test: Monospecies bacterial biofilm inhibition, static peg assay (Calgary device, crystal violet; planktonic OD600); format: cell-based, Staphylococcus aureus
Procedure: as §1

[3] = mixed E. coli TG1 + P. aeruginosa PA14, 37°C, read-out: IC50 (planktonic growth)
[4] = mixed E. coli TG1 + P. aeruginosa PA14 biofilm, 37°C, read-out: BIC50
[5] = mixed S. aureus ATCC 6538 + S. epidermidis biofilm, read-out: BIC50
[6] = mixed S. aureus ATCC 6538 + S. epidermidis, read-out: IC50 (planktonic growth)
[7] = TG1, E. coli TG1, 25°C, read-out: BIC50
[8] = TG1, E. coli TG1, 25°C, read-out: IC50 (planktonic growth)
[9] = TG1, E. coli TG1, 37°C, read-out: BIC50
[10] = TG1, E. coli TG1, 37°C, read-out: IC50 (planktonic growth)
[11] = PA14, P. aeruginosa PA14, 25°C, read-out: BIC50
[12] = PA14, P. aeruginosa PA14, 25°C, read-out: IC50 (planktonic growth)
[13] = PA14, P. aeruginosa PA14, 37°C, read-out: BIC50
[14] = PA14, P. aeruginosa PA14, 37°C, read-out: IC50 (planktonic growth)
[15] = Staphylococcus aureus, ATCC6538, S. aureus ATCC 6538, 37°C, planktonic OD600, read-out: IC50 (concentration needed to inhibit planktonic growth by 50%)
[16] = Staphylococcus aureus, ATCC6538, S. aureus ATCC 6538, 37°C, read-out: BIC50 (concentration needed to inhibit biofilm formation by 50%)

| Compound | IC50 [1, 3] [µM] | IC50 [1, 4] [µM] | IC50 [2, 5] [µM] | IC50 [2, 6] [µM] | IC50 (E. coli TG1; [7]) [µM] | IC50 (E. coli TG1; [8]) [µM] | IC50 (E. coli TG1; [9]) [µM] | IC50 (E. coli TG1; [10]) [µM] | IC50 (P. aeruginosa PA14; [11]) [µM] | IC50 (P. aeruginosa PA14; [12]) [µM] | IC50 (P. aeruginosa PA14; [13]) [µM] | IC50 (P. aeruginosa PA14; [14]) [µM] | IC50 (S. aureus ATCC 6538; [15]) [µM] | IC50 (S. aureus ATCC 6538; [16]) [µM] | further results |
| --- | --- | --- | --- | --- | --- | --- | --- | --- | --- | --- | --- | --- | --- | --- | --- |
| CCCCCCCCn1c(-c2ccc(Cl)cc2)cnc1NC1CCCC1 [Compound 8f] | > 400 | 400 | 2 | ~22.5 | 29.1 | > 400 | 306 | 370 | > 400 | > 400 | > 400 | > 400 | ~24.1 | 6.7 |  |
| CCCCCCCCn1c(-c2ccc(Cl)cc2)cnc1N [Compound 2] |  |  |  |  |  |  | ~6.5 | 7.7 | 4 |  | 118 | 10 |  |  | IC50 ([1]; 72 h, mixed E. coli TG1 + P. aeruginosa PA14, 37°C, read-out: IC50 (planktonic growth)): 19.9 µM; IC50 ([1]; 72 h, mixed E. coli TG1 + P. aeruginosa PA14 biofilm, 37°C, read-out: BIC50): 36.8 µM; IC50 ([2]; 48 h, mixed S. aureus ATCC 6538 + S. epidermidis biofilm, read-out: BIC50): ~7.2 µM; IC50 ([2]; 48 h, mixed S. aureus ATCC 6538 + S. epidermidis, read-out: IC50 (planktonic growth)): ~9.9 µM; IC50 (S. aureus ATCC 6538; Staphylococcus aureus, ATCC6538, read-out: BIC50 (concentration needed to inhibit biofilm formation by 50%), S. aureus ATCC 6538, 37°C): 2 to 6 µM; IC50 (S. aureus ATCC 6538; Staphylococcus aureus, ATCC6538, read-out: IC50 (concentration needed to inhibit planktonic growth by 50%), S. aureus ATCC 6538, 37°C, planktonic OD600): 7.8 µM; IC50 (S. aureus ATCC 6538; read-out: BIC50 (concentration needed to inhibit biofilm formation by 50%), S. aureus ATCC 6538, 37°C): 2.8 µM |
| CCCCCCCCn1c(-c2ccc(Br)cc2)cnc1NCC(C)C [Compound 8c] | > 400 | > 400 | 5 | > 400 | > 400 | 150 | > 400 | 74.1 | > 400 | > 400 | > 400 | 345 | 173 | 41 |  |

More lines, main results first:

| IC50 [1, 3] [µM] | IC50 [1, 4] [µM] | IC50 [2, 5] [µM] | IC50 [2, 6] [µM] | IC50 (E. coli TG1; [7]) [µM] | IC50 (E. coli TG1; [8]) [µM] | IC50 (E. coli TG1; [9]) [µM] | IC50 (E. coli TG1; [10]) [µM] | IC50 (P. aeruginosa PA14; [11]) [µM] | IC50 (P. aeruginosa PA14; [12]) [µM] | IC50 (P. aeruginosa PA14; [13]) [µM] | IC50 (P. aeruginosa PA14; [14]) [µM] | Compound | IC50 (S. aureus ATCC 6538; [15]) [µM] | IC50 (S. aureus ATCC 6538; [16]) [µM] | further results |
| --- | --- | --- | --- | --- | --- | --- | --- | --- | --- | --- | --- | --- | --- | --- | --- |
| > 400 | > 400 | > 400 | > 400 | > 400 | 255 | > 400 | 46.3 | > 400 | > 400 | > 400 | > 400 | CCCCCCCCn1c(-c2ccc(Cl)c(Cl)c2)cnc1NCC(C)C [Compound 8d] | > 400 | 116 |  |
| > 400 | > 400 | 4.9 | ~25.1 | > 400 | > 400 | > 400 | > 400 | > 400 | > 400 | > 400 | > 400 | CCCCCCCCn1c(-c2ccc(Cl)c(Cl)c2)cnc1NC1CCCC1 [Compound 8h] | 19.5 | 3.8 |  |
